Laboratory results taken from PubChem BioAssay AID742 (SRMLSC, 2007).
Active and inactive are the calls of the source. How the calls were made is not given here.

Assays:
[1] = inhibitors of Her2 kinase expression, dose response, cell-based, AlphaScreen, CellTiter-Glo viability (AID 742); conditions: human cells, Her2 expression AlphaScreen; CTG viability; at 9.62 µM (top of the series)
[2] = system: human cells, Her2 expression AlphaScreen; CTG viability; assay: as above; conditions: viability, CellTiter-Glo

COc1ccc(-c2cc(N)n(S(=O)(=O)c3c(F)c(F)c(F)c(F)c3F)n2)cc1OC
Her2 inhibition [1]: 48.8% (inactive)
EC50 [2]: > 9.62 µM

CCOC(=O)c1c(C)[nH]c(C(=O)OC/C(O)=C(\C#N)c2nc3ccccc3[nH]2)c1C
Her2 inhibition [1]: 16.6% (inactive)
EC50 [2]: > 9.62 µM

COC(=O)c1[nH]c2ccc(Br)cc2c1NC(=O)C(C)N1CCN(C2CCCCC2)CC1 (stereo unspecified)
Her2 inhibition [1]: -20.7% (inactive)
EC50 [2]: > 9.62 µM

COc1ccc2sc(NC(=O)CC(C)C)nc2c1
Her2 inhibition [1]: 2.84% (inactive)
EC50 [2]: > 9.62 µM

CN1CCN(CCCN2c3ccccc3Sc3ccc(Cl)cc32)CC1
Her2 inhibition [1]: -5.38% (inactive)
EC50 [2]: > 9.62 µM

CCOC(=O)C1C(c2ccccc2Cl)NC(=O)N(C)C1(O)C(F)(F)F (stereo unspecified)
Her2 inhibition [1]: -10.7% (inactive)
EC50 [2]: > 9.62 µM

Cc1cc2nnc(SC(C)C#N)n2c2ccccc12 (stereo unspecified)
Her2 inhibition [1]: -10.1% (inactive)
EC50 [2]: > 9.62 µM

C=C(C)COc1ccc(-c2n[nH]c(C)c2-c2ccccc2)c(O)c1
Her2 inhibition [1]: -3.91% (inactive)
EC50 [2]: > 9.62 µM

CSc1ccc2c(c1)N(CCC1CCCCN1C)c1ccccc1S2 (stereo unspecified)
Her2 inhibition [1]: -45.6% (inactive)
EC50 [2]: > 9.62 µM

CCNC(=O)c1nc[nH]c1C(=O)NCC
Her2 inhibition [1]: 2.98% (inactive)
EC50 [2]: > 9.62 µM

CCC(C)NC(=O)c1cnn2c1NC(c1ccc3c(c1)OCO3)CC2C(F)(F)F (stereo unspecified)
Her2 inhibition [1]: -0.33% (inactive)
EC50 [2]: > 9.62 µM

CC(C)(C)c1cc(C(c2cccnc2)N2CCN(CCO)CC2)cc(C(C)(C)C)c1O (stereo unspecified)
Her2 inhibition [1]: 7.24% (inactive)
EC50 [2]: > 9.62 µM

CCCCCCCCNC(C)C(O)c1ccc(SC(C)C)cc1 (stereo unspecified)
Her2 inhibition [1]: -16.3% (inactive)
EC50 [2]: > 9.62 µM

CCCc1cc(C(=O)Cc2ccc(F)cc2)c(O)cc1O
Her2 inhibition [1]: -30.2% (inactive)
EC50 [2]: > 9.62 µM

N#C/C(C(N)=O)=c1/ccc2c(c1)N1C3=C(CCCC3)CC3CCCCC31N=2 (stereo unspecified)
Her2 inhibition [1]: 4.75% (inactive)
EC50 [2]: > 9.62 µM

Cc1cccc(C)c1NC1=NCCCS1
Her2 inhibition [1]: 6.69% (inactive)
EC50 [2]: > 9.62 µM

Cn1c(SC2=CS(=O)(=O)c3ccccc32)nc2ccccc21
Her2 inhibition [1]: 44.8% (inactive)
EC50 [2]: > 9.62 µM

CS(=O)(=O)c1ncc(Cl)c(C(=O)Nc2ccc(N3CCOCC3)cc2)n1
Her2 inhibition [1]: 19.8% (inactive)
EC50 [2]: > 9.62 µM

OC(CN1CCN(c2cccc(C(F)(F)F)c2)CC1)c1c[nH]c2ccccc12 (stereo unspecified)
Her2 inhibition [1]: 4.59% (inactive)
EC50 [2]: > 9.62 µM

CCOc1ccc(-c2nnn(CC(=O)c3cc(OC)ccc3OC)n2)cc1
Her2 inhibition [1]: -22.6% (inactive)
EC50 [2]: > 9.62 µM

CC1CN=C(N(C(=O)Nc2ccccc2)c2ccc(S(=O)(=O)N3CCOCC3)cc2)S1 (stereo unspecified)
Her2 inhibition [1]: -5.35% (inactive)
EC50 [2]: > 9.62 µM

FC(F)(F)c1ccc(N2CCOCC2)c(Nc2nc3ccccc3n3cnnc23)c1
Her2 inhibition [1]: -15.5% (inactive)
EC50 [2]: > 9.62 µM

Cc1ccc(C2CC(=O)N3CN(c4ccc(Br)cc4)CSC3=C2C#N)o1 (stereo unspecified)
Her2 inhibition [1]: 16% (inactive)
EC50 [2]: > 9.62 µM

COC(=O)Nc1ccc(S(=O)(=O)N(CCO)CC(F)(F)C(F)F)cc1
Her2 inhibition [1]: -11.6% (inactive)
EC50 [2]: > 9.62 µM

CCN(CC)C(=O)c1csc(Nc2ccc(C)cc2)n1
Her2 inhibition [1]: -12.9% (inactive)
EC50 [2]: > 9.62 µM

CC1CC(C)(C)Nc2ccc(OC(=O)c3ccco3)cc21 (stereo unspecified)
Her2 inhibition [1]: -5.22% (inactive)
EC50 [2]: > 9.62 µM

OCCN1CCN(CCCN2c3ccccc3Sc3ccc(C(F)(F)F)cc32)CC1
Her2 inhibition [1]: 12.6% (inactive)
EC50 [2]: > 9.62 µM

CCOc1cc(C(=O)CSc2nnc(CNc3ccc(Cl)cc3)o2)ccc1NC(=O)CC
Her2 inhibition [1]: -22.6% (inactive)
EC50 [2]: > 9.62 µM

Nc1c(C(=O)Nc2ccccc2)sc2nc(-c3ccco3)ccc12
Her2 inhibition [1]: 18.3% (inactive)
EC50 [2]: > 9.62 µM

CN1CCN(c2ccc(C(N)=O)cc2N)CC1
Her2 inhibition [1]: -16.8% (inactive)
EC50 [2]: > 9.62 µM

CC(=O)Nc1ccc(NS(=O)(=O)c2cc(C)sc2C)cc1
Her2 inhibition [1]: 0.09% (inactive)
EC50 [2]: > 9.62 µM

CCN(CC(=O)NCc1cccs1)c1nnnn1-c1ccccc1
Her2 inhibition [1]: -22.3% (inactive)
EC50 [2]: > 9.62 µM

CS(=O)c1nc(-c2ccc(Br)cc2)cc(-c2ccccc2)c1C#N (stereo unspecified)
Her2 inhibition [1]: 34% (inactive)
EC50 [2]: > 9.62 µM

Cc1ccc(-n2nc(C)c3c2OC(N)=C(C#N)C3c2ccc(F)cc2)cc1 (stereo unspecified)
Her2 inhibition [1]: -1.17% (inactive)
EC50 [2]: > 9.62 µM

Oc1cccc2ccc(Nc3ccccn3)nc12
Her2 inhibition [1]: 31.3% (inactive)
EC50 [2]: > 9.62 µM

CC(C)C(=O)N(Cc1cc2ccccc2[nH]c1=O)C(C)(C)C
Her2 inhibition [1]: -2.53% (inactive)
EC50 [2]: > 9.62 µM

CCCCCNC(=O)C(C#N)c1nc2ccccc2nc1N1CCCC1 (stereo unspecified)
Her2 inhibition [1]: -19% (inactive)
EC50 [2]: > 9.62 µM

CCn1c(=O)c(C(=O)Nc2nc3ccccc3[nH]2)c(O)c2ccccc21
Her2 inhibition [1]: 41.2% (inactive)
EC50 [2]: > 9.62 µM

Cc1cccc(Nc2nc(-c3ccccn3)cs2)n1
Her2 inhibition [1]: 0.46% (inactive)
EC50 [2]: > 9.62 µM

Clc1ccc(COC(Cn2ccnc2)c2ccc(Cl)cc2Cl)cc1 (stereo unspecified)
Her2 inhibition [1]: 1.73% (inactive)
EC50 [2]: > 9.62 µM

CCOC(=O)c1ccc(N=c2sc(C(=O)OC)cc(=O)n2Cc2ccco2)cc1
Her2 inhibition [1]: -0.92% (inactive)
EC50 [2]: > 9.62 µM

CN1CCCN(C(c2ccccc2)c2ccc(Cl)cc2)CC1 (stereo unspecified)
Her2 inhibition [1]: -8.42% (inactive)
EC50 [2]: > 9.62 µM

COC(=O)c1sccc1NC(=O)c1csc(C)c1
Her2 inhibition [1]: 29.8% (inactive)
EC50 [2]: > 9.62 µM

c1ccc(Cc2nn3c(COc4ccccc4)nnc3s2)cc1
Her2 inhibition [1]: -17.6% (inactive)
EC50 [2]: > 9.62 µM

O=C(CN1CCC(c2nc3ccccc3s2)CC1)NCc1cccs1
Her2 inhibition [1]: -41.9% (inactive)
EC50 [2]: > 9.62 µM

Cc1ccc(C)n1-c1ccc(N2CCOCC2)nc1
Her2 inhibition [1]: 3.86% (inactive)
EC50 [2]: > 9.62 µM

CCOC(=O)c1c(-c2cccs2)csc1NC(=O)c1ccco1
Her2 inhibition [1]: 17.4% (inactive)
EC50 [2]: > 9.62 µM

Cn1c(=O)c2c(SCc3cccc(C(F)(F)F)c3)nc(-c3ccco3)nc2n(C)c1=O
Her2 inhibition [1]: -20.9% (inactive)
EC50 [2]: > 9.62 µM

CCc1ccc(C2CC(=O)N3CN(c4ccccc4)CSC3=C2C#N)cc1 (stereo unspecified)
Her2 inhibition [1]: 21.4% (inactive)
EC50 [2]: > 9.62 µM

CCCCCCOC(=O)C(C#N)c1nc2ccccc2nc1N1CCN(C)CC1 (stereo unspecified)
Her2 inhibition [1]: -32.5% (inactive)
EC50 [2]: > 9.62 µM

COc1cccc(N2CCN(c3ncnc4c3[nH]c3ccc(F)cc34)CC2C)c1 (stereo unspecified)
Her2 inhibition [1]: -42.1% (inactive)
EC50 [2]: < 0.024 µM

N#CC(C#N)=c1ccc2c(c1)NC1(CCCCC1)N=2
Her2 inhibition [1]: 43.8% (inactive)
EC50 [2]: > 9.62 µM

CCc1nc(C)ccc1OCC(=O)NCCCN(C)C
Her2 inhibition [1]: -3% (inactive)
EC50 [2]: > 9.62 µM

O=S(=O)(c1ccc2c(c1)C(=NO)c1cc(S(=O)(=O)N3CCCCC3)ccc1-2)N1CCCCC1
Her2 inhibition [1]: 27.4% (inactive)
EC50 [2]: < 0.024 µM

CCOC(=O)Cc1csc(NC(=O)COc2ccc(OC)cc2)n1
Her2 inhibition [1]: -22.7% (inactive)
EC50 [2]: > 9.62 µM

O=C(CCCCCn1c(=S)[nH]c2cc3c(cc2c1=O)OCO3)N1CCN(C2CCCCC2)CC1
Her2 inhibition [1]: 4.12% (inactive)
EC50 [2]: > 9.62 µM

CS(=O)(=O)c1ccc(Cl)c(NC(=O)COC(=O)CNC(=O)c2ccc(Br)o2)c1
Her2 inhibition [1]: 5.14% (inactive)
EC50 [2]: > 9.62 µM

c1ccc(CNC2=NCCC2)nc1
Her2 inhibition [1]: -3.59% (inactive)
EC50 [2]: > 9.62 µM

Cc1ccc2[nH]cc(C(=O)CN3CCN(c4ccccn4)CC3)c2c1
Her2 inhibition [1]: -23.7% (inactive)
EC50 [2]: > 9.62 µM

CCCCCN=Cc1c(C)[nH]n(-c2nc3ccccc3s2)c1=O
Her2 inhibition [1]: -1.78% (inactive)
EC50 [2]: > 9.62 µM

O=C(O)c1ccc2c3c(ncnc13)-c1ccccc1C2=O
Her2 inhibition [1]: -3.54% (inactive)
EC50 [2]: > 9.62 µM

COc1ccc(OCC(=O)NCc2cccnc2)cc1
Her2 inhibition [1]: -22.7% (inactive)
EC50 [2]: > 9.62 µM

C[C@@]1(CO)[C@H](O)CC[C@@]2(C)[C@H]1CC[C@H]1C[C@@H]3C[C@@]12CC[C@]3(O)CO
Her2 inhibition [1]: 1.16% (inactive)
EC50 [2]: > 9.62 µM

Cc1[nH]nc2c1C(C1CC=CCC1)C(C#N)=C(N)O2 (stereo unspecified)
Her2 inhibition [1]: -29.3% (inactive)
EC50 [2]: > 9.62 µM

Cc1ccc(S(=O)(=O)c2c(C)nn(C(C)(C)C)c2OC(=O)c2ccc(Br)o2)cc1
Her2 inhibition [1]: 4.78% (inactive)
EC50 [2]: > 9.62 µM

COc1ccc(-c2nnc(SC(=O)N3c4ccccc4Sc4ccccc43)o2)cc1
Her2 inhibition [1]: -24.1% (inactive)
EC50 [2]: > 9.62 µM

CCOC(=O)N1CCN(CCC(=O)c2ccc(Cl)cc2)CC1
Her2 inhibition [1]: 9.27% (inactive)
EC50 [2]: > 9.62 µM

Cc1ccc(/C=C/C2=Cc3c(sc(NC(=O)CSc4n[nH]c(N)n4)c3C#N)C(C)(C)C2)o1
Her2 inhibition [1]: -0.68% (inactive)
EC50 [2]: > 9.62 µM

COc1cc2c(C#N)c(N3CCN(c4ccccc4OC)CC3)nc(N)c2c(N)n1
Her2 inhibition [1]: -7.21% (inactive)
EC50 [2]: > 9.62 µM

Cc1c(C#N)c(N)c(C(=O)c2ccccc2)n1Cc1ccccc1
Her2 inhibition [1]: -0.29% (inactive)
EC50 [2]: > 9.62 µM

CCn1c(SCC(=O)C(C)(C)C)nnc1-c1cnccn1
Her2 inhibition [1]: 2.82% (inactive)
EC50 [2]: > 9.62 µM

CCOC(=O)CC1=C(C(=O)OCC)C(c2ccc(OC)cc2OC)C(C#N)=C(N)O1 (stereo unspecified)
Her2 inhibition [1]: -27.6% (inactive)
EC50 [2]: > 9.62 µM

Cc1cc(-n2c(C)cc(C(=O)CSc3nnnn3-c3ccc(Cl)cc3)c2C)no1
Her2 inhibition [1]: -6.46% (inactive)
EC50 [2]: > 9.62 µM

CCN1C(=O)CC(C(=O)Nc2ccc(F)cc2)SC1=Nc1ccc2c(c1)OCO2 (stereo unspecified)
Her2 inhibition [1]: -33.1% (inactive)
EC50 [2]: > 9.62 µM

O=C1C(C2=C(O)c3ccccc3C2=O)=Nc2ccccc21
Her2 inhibition [1]: -1.36% (inactive)
EC50 [2]: < 0.024 µM

CCN(CC)c1ccc2c(c1)oc(=O)c1c(Cl)cc(=O)oc12
Her2 inhibition [1]: -20.7% (inactive)
EC50 [2]: > 9.62 µM

CCn1c(C)cc(=S)c2ccccc21
Her2 inhibition [1]: -25.6% (inactive)
EC50 [2]: > 9.62 µM

CC(=O)Nc1cc(OC(C)=O)c2nonc2c1OC(C)=O
Her2 inhibition [1]: 22.3% (inactive)
EC50 [2]: > 9.62 µM
